Measurements published in PubChem BioAssay AID2060904 (Molecular Pharmacology Branch, DTP, NCI, 2025).
pIC50: −log10 of the molar value.

Tested on: 349418-098-R-PDC complex spheroid viability
Assay: Anticancer human tumor 349418-098-R-PDC patient-derived lung adenocarcinoma cell line growth inhibition [RAS]
Conditions: for pIC50: curve of first compound; for viability, T/C: stronger effect = lower value
Method in brief: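 Tumour cells grown as complex spheroids with HUVEC endothelial cells and mesenchymal stem cells, treated with RAS pathway inhibitor combinations. Each agent spans half-log steps from near clinical Cmax, or 10 microM where Cmax is unknown.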
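Note: spheroids exposed to compound for seven days before viability readout.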

Question: What does the source list for C=CC(=O)N1CCN(c2nc(OCC3CCCN3C)nc3c(F)c(-c4nc(N)cc(C)c4C(F)(F)F)c(Cl)cc23)C(C)C1 (centres undefined) + C#Cc1c(F)ccc2cc(O)cc(-c3ncc4c(N5CC6CCC(C5)N6)nc(OCC56CCCN5CC(F)C6)nc4c3F)c12?
Answer: pIC50 (second compound 0.0316 µM): < 6.00; pIC50 (second compound 0.1 µM): < 6.00; pIC50 (second compound 0.316 µM): < 6.00; pIC50 (second compound 1 µM): < 6.00; pIC50 (second compound 3.16 µM): < 6.00; pIC50 (second compound 10 µM): 6.57; viability, T/C (second compound 0.0316 µM, first compound 0.00316 µM): 82.8%; viability, T/C (second compound 0.0316 µM, first compound 0.01 µM): 105%; viability, T/C (second compound 0.0316 µM, first compound 0.0316 µM): 112%; viability, T/C (second compound 0.0316 µM, first compound 0.1 µM): 75.1%; viability, T/C (second compound 0.0316 µM, first compound 0.316 µM): 111%; viability, T/C (second compound 0.0316 µM, first compound 1 µM): 69.8%; viability, T/C (second compound 0.1 µM, first compound 0.00316 µM): 74.3%; viability, T/C (second compound 0.1 µM, first compound 0.01 µM): 124%; viability, T/C (second compound 0.1 µM, first compound 0.0316 µM): 104%; viability, T/C (second compound 0.1 µM, first compound 0.1 µM): 87.2%; viability, T/C (second compound 0.1 µM, first compound 0.316 µM): 98.3%; viability, T/C (second compound 0.1 µM, first compound 1 µM): 83.9%; viability, T/C (second compound 0.316 µM, first compound 0.00316 µM): 65.6%; viability, T/C (second compound 0.316 µM, first compound 0.01 µM): 125%; viability, T/C (second compound 0.316 µM, first compound 0.0316 µM): 109%; viability, T/C (second compound 0.316 µM, first compound 0.1 µM): 79.7%; viability, T/C (second compound 0.316 µM, first compound 0.316 µM): 89.3%; viability, T/C (second compound 0.316 µM, first compound 1 µM): 87.6%; viability, T/C (second compound 1 µM, first compound 0.00316 µM): 81%; viability, T/C (second compound 1 µM, first compound 0.01 µM): 114%; viability, T/C (second compound 1 µM, first compound 0.0316 µM): 82.9%; viability, T/C (second compound 1 µM, first compound 0.1 µM): 91.2%; viability, T/C (second compound 1 µM, first compound 0.316 µM): 83.2%; viability, T/C (second compound 1 µM, first compound 1 µM): 77.9%; viability, T/C (second compound 3.16 µM, first compound 0.00316 µM): 77.4%; viability, T/C (second compound 3.16 µM, first compound 0.01 µM): 105%; viability, T/C (second compound 3.16 µM, first compound 0.0316 µM): 112%; viability, T/C (second compound 3.16 µM, first compound 0.1 µM): 73.3%; viability, T/C (second compound 3.16 µM, first compound 0.316 µM): 116%; viability, T/C (second compound 3.16 µM, first compound 1 µM): 75.2%; viability, T/C (second compound 10 µM, first compound 0.00316 µM): 91%; viability, T/C (second compound 10 µM, first compound 0.01 µM): 75%; viability, T/C (second compound 10 µM, first compound 0.0316 µM): 85.3%; viability, T/C (second compound 10 µM, first compound 0.1 µM): 66.8%; viability, T/C (second compound 10 µM, first compound 0.316 µM): 47.7%; viability, T/C (second compound 10 µM, first compound 1 µM): 7.82%

Question: With CC1(O)CCCC1n1c(=O)c(C(F)F)cc2cnc(NC3CCN(S(C)(=O)=O)CC3)nc21 (centres undefined) + CCn1c(-c2cc(N3CCN(C)CC3)cnc2C(C)OC)c2c3cc(ccc31)-c1csc(n1)CC(NC(=O)C1CC1C)C(=O)N1CCCC(N1)C(=O)OCC(C)(C)C2 as the molecule, how does the pIC50 (second compound 0.000949 µM) read?
Answer: 7.20

Question: What about the pIC50 (second compound 0.003 µM) of the same molecule?
Answer: 7.14

Question: What about the pIC50 (second compound 0.00949 µM) of the same molecule?
Answer: 7.24

Question: What about the pIC50 (second compound 0.03 µM) of the same molecule?
Answer: 7.07

Question: And the pIC50 (second compound 0.0949 µM)?
Answer: 7.08

Question: What about the pIC50 (second compound 0.3 µM) of the same molecule?
Answer: 7.11

Question: What about the viability, T/C (second compound 0.000949 µM, first compound 0.0316 µM) of the same molecule?
Answer: 71.3%

Question: What about the viability, T/C (second compound 0.000949 µM, first compound 0.1 µM) of the same molecule?
Answer: 34.3%

Question: What about the viability, T/C (second compound 0.000949 µM, first compound 0.316 µM) of the same molecule?
Answer: 21.8%

Question: And the viability, T/C (second compound 0.000949 µM, first compound 1 µM)?
Answer: 21.3%

Question: And the viability, T/C (second compound 0.000949 µM, first compound 3.16 µM)?
Answer: 22.5%

Question: What about the viability, T/C (second compound 0.000949 µM, first compound 10 µM) of the same molecule?
Answer: 3.27%

Question: What about the viability, T/C (second compound 0.003 µM, first compound 0.0316 µM) of the same molecule?
Answer: 73.1%

Question: And the viability, T/C (second compound 0.003 µM, first compound 0.1 µM)?
Answer: 38.1%

Question: And the viability, T/C (second compound 0.003 µM, first compound 0.316 µM)?
Answer: 25.3%

Question: What about the viability, T/C (second compound 0.003 µM, first compound 1 µM) of the same molecule?
Answer: 20.1%

Question: What about the viability, T/C (second compound 0.003 µM, first compound 3.16 µM) of the same molecule?
Answer: 21.5%

Question: What about the viability, T/C (second compound 0.003 µM, first compound 10 µM) of the same molecule?
Answer: 2.54%

Question: What about the viability, T/C (second compound 0.00949 µM, first compound 0.0316 µM) of the same molecule?
Answer: 60.6%

Question: What about the viability, T/C (second compound 0.00949 µM, first compound 0.1 µM) of the same molecule?
Answer: 41.4%

Question: What about the viability, T/C (second compound 0.00949 µM, first compound 0.316 µM) of the same molecule?
Answer: 22%

Question: What about the viability, T/C (second compound 0.00949 µM, first compound 1 µM) of the same molecule?
Answer: 23%

Question: And the viability, T/C (second compound 0.00949 µM, first compound 3.16 µM)?
Answer: 19.6%

Question: What about the viability, T/C (second compound 0.00949 µM, first compound 10 µM) of the same molecule?
Answer: 2.74%

Question: And the viability, T/C (second compound 0.03 µM, first compound 0.0316 µM)?
Answer: 70.8%

Question: What about the viability, T/C (second compound 0.03 µM, first compound 0.1 µM) of the same molecule?
Answer: 48.1%

Question: What about the viability, T/C (second compound 0.03 µM, first compound 0.316 µM) of the same molecule?
Answer: 23.6%

Question: And the viability, T/C (second compound 0.03 µM, first compound 1 µM)?
Answer: 22.9%

Question: What about the viability, T/C (second compound 0.03 µM, first compound 3.16 µM) of the same molecule?
Answer: 19.2%

Question: And the viability, T/C (second compound 0.03 µM, first compound 10 µM)?
Answer: 2.55%

Question: And the viability, T/C (second compound 0.0949 µM, first compound 0.0316 µM)?
Answer: 83.8%

Question: And the viability, T/C (second compound 0.0949 µM, first compound 0.1 µM)?
Answer: 42%

Question: And the viability, T/C (second compound 0.0949 µM, first compound 0.316 µM)?
Answer: 23.3%

Question: And the viability, T/C (second compound 0.0949 µM, first compound 1 µM)?
Answer: 23.9%

Question: And the viability, T/C (second compound 0.0949 µM, first compound 3.16 µM)?
Answer: 21.4%

Question: And the viability, T/C (second compound 0.0949 µM, first compound 10 µM)?
Answer: 2.75%

Question: And the viability, T/C (second compound 0.3 µM, first compound 0.0316 µM)?
Answer: 78.2%

Question: What about the viability, T/C (second compound 0.3 µM, first compound 0.1 µM) of the same molecule?
Answer: 40.7%

Question: What about the viability, T/C (second compound 0.3 µM, first compound 0.316 µM) of the same molecule?
Answer: 22.5%

Question: What about the viability, T/C (second compound 0.3 µM, first compound 1 µM) of the same molecule?
Answer: 22.3%

Question: What about the viability, T/C (second compound 0.3 µM, first compound 3.16 µM) of the same molecule?
Answer: 20.5%

Question: And the viability, T/C (second compound 0.3 µM, first compound 10 µM)?
Answer: 2.63%

Question: With CC(Nc1ccc2c(c1)OCCn1cc(N3C(=O)OCC3C(F)F)nc1-2)C(N)=O (centres undefined) as the molecule, how does the viability, T/C (compound 0.0316 µM) read?
Answer: 75.9% [middle of 4 runs]

Question: What about the viability, T/C (compound 0.1 µM) of the same molecule?
Answer: 49.6% [middle of 4 runs]

Question: What about the viability, T/C (compound 0.316 µM) of the same molecule?
Answer: 32% [middle of 4 runs]

Question: And the viability, T/C (compound 1 µM)?
Answer: 21.9% [middle of 4 runs]

Question: And the viability, T/C (compound 10 µM)?
Answer: 14.1% [middle of 4 runs]
